Measured values: PMC9737972, “Dual LSD1 and HDAC6 Inhibition Induces Doxorubicin Sensitivity in Acute Myeloid Leukemia Cells” (Cancers, 2022)

Columns and labels:
MOLM-13 [1] = test: Combination treatment with doxorubicin, MOLM-13 cell viability; format: cell-based; details: iDual 0.5 μM, iHDAC6 0.5 μM, GSK2879552 1.25 μM, ricolinostat […], 72 h then + doxorubicin 2 nM 48 h
Jurkat = test: Cell Titer-Glo cell viability, Jurkat; format: cell-based; details: Homo sapiens, 120 h, ± standard deviation, three biological repeats, read-out: IC50 cell viability Jurkat
MOLM-13 [2] = test: Cell Titer-Glo cell viability, MOLM-13; format: cell-based; details: Homo sapiens, MOLM-13; 120 h, ± standard deviation, three biological repeats; read-out: IC50 cell viability MOLM-13
HDAC6 = target: T1, HDAC6 (Homo sapiens, UniProt Q9UBN7); test: Cellular thermal shift assay (CETSA), HDAC6; format: cell-based; details: THP-1 cells, 1 h; 4 μM (methods, Figure 2), Figure S14 legend 500 nM
T1 construct: endogenous in cells; host or cells: THP-1
T1 sequence (Q9UBN7 1-1215): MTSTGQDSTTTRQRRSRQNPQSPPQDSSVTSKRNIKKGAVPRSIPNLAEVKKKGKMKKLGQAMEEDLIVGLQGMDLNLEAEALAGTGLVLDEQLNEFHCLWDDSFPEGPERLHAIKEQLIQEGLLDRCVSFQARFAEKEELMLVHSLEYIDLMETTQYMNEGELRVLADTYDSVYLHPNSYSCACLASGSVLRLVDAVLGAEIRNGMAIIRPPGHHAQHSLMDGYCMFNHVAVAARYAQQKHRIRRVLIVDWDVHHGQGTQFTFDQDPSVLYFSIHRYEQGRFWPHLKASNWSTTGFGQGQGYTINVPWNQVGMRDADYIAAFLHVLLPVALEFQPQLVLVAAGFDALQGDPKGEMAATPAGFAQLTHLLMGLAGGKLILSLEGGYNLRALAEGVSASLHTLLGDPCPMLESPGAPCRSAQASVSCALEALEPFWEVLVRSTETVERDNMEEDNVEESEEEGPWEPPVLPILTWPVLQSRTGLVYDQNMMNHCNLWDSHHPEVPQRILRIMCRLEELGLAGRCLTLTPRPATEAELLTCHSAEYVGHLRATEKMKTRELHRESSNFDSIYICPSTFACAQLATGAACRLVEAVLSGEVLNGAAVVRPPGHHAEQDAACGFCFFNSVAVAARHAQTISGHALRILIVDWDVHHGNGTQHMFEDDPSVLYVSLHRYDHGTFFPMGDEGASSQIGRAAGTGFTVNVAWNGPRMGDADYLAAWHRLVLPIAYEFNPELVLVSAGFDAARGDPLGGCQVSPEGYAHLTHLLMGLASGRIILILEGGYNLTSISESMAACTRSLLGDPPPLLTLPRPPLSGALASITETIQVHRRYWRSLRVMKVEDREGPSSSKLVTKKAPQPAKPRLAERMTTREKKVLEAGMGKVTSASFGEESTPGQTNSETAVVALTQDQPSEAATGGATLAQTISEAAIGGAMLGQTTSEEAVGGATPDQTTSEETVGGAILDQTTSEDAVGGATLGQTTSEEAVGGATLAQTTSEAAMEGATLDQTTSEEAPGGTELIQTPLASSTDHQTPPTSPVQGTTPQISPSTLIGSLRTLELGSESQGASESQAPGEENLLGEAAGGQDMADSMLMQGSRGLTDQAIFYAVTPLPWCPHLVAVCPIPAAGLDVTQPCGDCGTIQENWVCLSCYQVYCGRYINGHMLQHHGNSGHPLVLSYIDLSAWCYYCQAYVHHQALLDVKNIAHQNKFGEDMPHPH
Experimental: THP-1 cells, 1 × 10^7 cells at a density of 1 × 10^6 cells/mL, were treated with 4 μM of test compounds (1 h, 37 °C, 5% CO2). Cells were centrifuged, and the pellet was resuspended with 1 × Phosphate Buffer Saline (Gibco, Grand Island, NY, USA, #10010023) containing 1 × Protease Inhibitor Cocktail (Cell Signaling Technology, Beverly, MA, USA, #5871) and 1 mM phenylmethylsulfonyl fluoride (PMSF, Sigma Aldrich, St. Louis, MO, USA, #10837091001). The suspension volume was divided equally and heated for 3 min at 43–64 °C in a T100 Thermal Cycler (Bio-rad, Hercules, CA, USA). For protein extraction, cells were snap-frozen using liquid nitrogen, thawed twice (25 °C, 1 min), then centrifuged (20,000× g, 15 min, 4 °C). Following centrifugation, protein containing supernatants were denatured at 70 °C for 10 min and loaded on SDS-PAGE gels (Bio-Rad, Hercules, CA, USA, 161-0317). After electrophoresis (100 V and 60 min), proteins were transferred onto PVDF membrane (Bio-Rad #1620177) at 200 mA for 180 min and immunoblotted with primary antibodies (1:10,000 dilution for anti-LSD1 Antibody ab129195 [EPR6825], 1:1000 dilution for Anti-HDAC6 Antibody CST 7558, 1:1000 dilution for Anti-HDAC1 Antibody ab53091, 1:1000 dilution for Anti-HDAC8 Antibody ab187139, 1:5000 dilution for Anti-beta Actin Antibody ab8227) overnight at 4 °C. The next day, membranes were incubated with HRP-conjugated secondary antibodies (1:5000 dilution for Abcam, Cambridge, UK, ab205718) for 1 h at room temperature. The signal was detected with BIORAD Chemi-Doc XRS+ System and by using Immobilon Forte Western HRP Substrate (WBLUF0500).

HDAC-3/NcoR2 = target: T2, HDAC-3/NcoR2 (Homo sapiens, UniProt O15379); test: HDAC-Glo I/II enzyme assay, HDAC3; format: biochemical; details: ± standard error, three independent measurements
T2 construct: purchased BPS Bioscience 50003

[3] = target: T3, Human recombinant C-ter-His-FLAG-HDAC1 (Homo sapiens, UniProt Q13547); test: HDAC-Glo I/II enzyme assay, HDAC1; format: biochemical; details: ± standard error, three independent measurements
T3 construct: His (C); FLAG (C); purchased BPS Bioscience 50051
T3 sequence (Q13547 whole entry): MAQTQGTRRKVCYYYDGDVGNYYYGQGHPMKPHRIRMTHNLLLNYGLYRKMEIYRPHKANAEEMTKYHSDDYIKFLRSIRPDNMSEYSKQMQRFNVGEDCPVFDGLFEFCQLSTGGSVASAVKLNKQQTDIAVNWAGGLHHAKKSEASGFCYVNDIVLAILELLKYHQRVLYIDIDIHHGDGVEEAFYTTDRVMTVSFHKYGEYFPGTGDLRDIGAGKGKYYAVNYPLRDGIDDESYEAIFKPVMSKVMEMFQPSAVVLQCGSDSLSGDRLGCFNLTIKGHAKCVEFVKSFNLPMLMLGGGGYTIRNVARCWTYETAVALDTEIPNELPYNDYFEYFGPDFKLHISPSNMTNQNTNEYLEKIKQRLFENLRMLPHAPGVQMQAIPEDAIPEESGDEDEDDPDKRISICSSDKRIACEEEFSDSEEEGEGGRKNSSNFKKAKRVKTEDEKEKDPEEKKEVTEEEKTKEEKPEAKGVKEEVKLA

T2 sequence (O15379 whole entry): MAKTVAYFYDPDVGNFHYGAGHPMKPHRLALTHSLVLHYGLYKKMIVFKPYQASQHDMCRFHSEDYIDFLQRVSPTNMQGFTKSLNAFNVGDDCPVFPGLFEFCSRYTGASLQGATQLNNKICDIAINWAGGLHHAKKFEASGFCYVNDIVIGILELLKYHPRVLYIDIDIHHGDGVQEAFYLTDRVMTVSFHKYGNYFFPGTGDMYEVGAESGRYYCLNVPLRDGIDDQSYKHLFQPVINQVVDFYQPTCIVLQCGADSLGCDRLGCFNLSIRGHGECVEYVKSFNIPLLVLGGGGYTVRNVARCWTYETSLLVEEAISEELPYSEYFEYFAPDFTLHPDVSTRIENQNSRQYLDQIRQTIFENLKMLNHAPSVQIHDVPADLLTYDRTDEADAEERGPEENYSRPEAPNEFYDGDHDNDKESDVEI
T2 sequence (Q9Y618 395-489 partner limits assumed): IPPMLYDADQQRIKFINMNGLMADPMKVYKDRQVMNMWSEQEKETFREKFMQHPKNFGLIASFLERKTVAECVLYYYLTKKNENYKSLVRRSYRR

Row | Compound | cell viability after priming with compound and co-treatment with doxorubicin 2 nM (MOLM-13 [1]) | IC50 (Jurkat) [µM] | IC50 (MOLM-13 [2]) [µM] | thermal stabilization of HDAC6 (CETSA) (HDAC6) | IC50 (HDAC-3/NcoR2) [µM] | IC50 [3] [µM]
1 | O=C(NO)c1ccc(CN2CCC(CN[C@@H]3C[C@H]3c3ccccc3)CC2)cc1 (relative stereo) [iDual] | greatest decrease | 15.5 ± 1.4 | 1.3 ± 0.4 | increased thermal stability | 2.29 ± 0.14 | 5.31 ± 0.25
2 | O=C(NO)c1ccc(CN2CCC(CNC3(c4ccccc4)CC3)CC2)cc1 [iHDAC6] | relatively ineffective | 10.7 ± 0.8 | 6.7 ± 1.6 | stabilized HDAC6 only | 4.09 ± 0.26 | 7.57 ± 0.29
